According to patent US20220296599A1, “Pharmaceutical composition comprising histone deacetylase inhibitor and methotrexate” (Chong Kun Dang Pharmaceutical Corp., priority 2018, published 2022):

Tests used:
Format in all cases: in vivo, Lewis rats
anti-CCP IgG = test: Analysis of anti-CCP IgG in plasma in AIA model (QUANTA Lite CCP3 IgG ELISA); settings: Mean ± SD
Method: (§1) Lewis rats (female, five-weeks old) were purchased from Central Lab Animal, Inc. and kept in a controlled environment with a temperature at 22±2° C., a humidity at 44-56% and a light/dark cycle of 12 hours, while being allowed to have a free access to standard diet and water for one week before an examination. Complete Freund's Adjuvant (Chondrex) containing 10 mg/mL of heat killed mycobacteria toxin was fully mixed together, after which […] thereof was taken and subcutaneously injected into each upper tail of the rats to induce arthritis therefrom.
(§2) To administer a drug of compound 374 (SM374) and evaluate an effect thereof, the rats were divided into 11 groups (9, 10 or 11 animals per group) one day before or nine days after inducing arthritis, after which each group was classified according to administered substances (vehicle, compound 374 (SM374) or methotrexate (MTX)) and administration routes (oral administration (P.O.) or intraperitoneal administration (I.P.)) as shown in a following table 13.
An effect of compound 374 (SM374) and MTX on preventing or treating arthritis according to administration thereof in combination was evaluated based on analysis of anti-CCP IgG, known as a diagnosis marker for rheumatoid arthritis.
Particularly, blood was collected from each jugular vein of rats dosed with compound 374 (SM374, once per day) and MTX (once or twice per week) from 9th day to 16th day after inducing AIA, after which plasma was isolated therefrom, such that anti-CCP IgG was measured with QUANTA Lite®CCP3 (cyclic citrullinated peptide 3) IgG ELISA kit (INOVA Diagnostics Inc., U.S., catalog no. 704535) according to a protocol offered by a manufacturer thereof, wherein the results thereof are shown in FIG. 5 and Table 20.

[1] = tested on: adjuvant-induced arthritis (AIA) model; test: Clinical score analysis in adjuvant-induced arthritis (AIA) model; parameters: Clinical score 9th day / Clinical score 13th day / Clinical score 16th day / Clinical score 11th day / Clinical score 15th day / Clinical score 18th day: scale not given here; settings: for Clinical score 9th day / Clinical score 13th day / Clinical score 16th day: Mean ± SD; for Clinical score 11th day / Clinical score 15th day / Clinical score 18th day: Mean ± SEM
Method: as §1, §2
(§3) Also, in order to administer a drug of compounds 374, 413, 484, 530 and 652 (SM374, SM413, SM484, SM530 and SM652) and evaluate an effect thereof, the rats were divided into 13 groups (9 or 10 animals per group) eight days after inducing arthritis, and each group was classified according to administered substances (vehicle, SM374, SM413, SM484, SM530, SM652 and MTX) and administration routes (oral or intraperitoneal administration) as shown in a following table 14.
To identify the efficacy of the inventive composition on preventing or treating arthritis in an AIA model, an analysis was made on the clinical scores of rats dosed with a compound 374 (SM 374, once per day) or MTX (once per week or twice per week) from 9th day to 16th day after inducing arthritis.
Particularly, a degree of swelling, erythema, etc., in each joint of the rats were observed, after which clinical scores were calculated according to a scoring system described in a following table 15, such that the clinical scores on four joints were added up to obtain total scores for each rat (Vishwakarma et al., 2013).
To identify the efficacy of the inventive composition on preventing or treating arthritis in an AIA model, an analysis was made on the clinical scores of rats dosed with compounds 374, 413, 484, 530 and 652 (SM374, SM413, SM484, SM530 and SM652, once per day) or MIX (once per week) from 8th day to 18th day after inducing arthritis.

[2] = Analysis of body weights in AIA model; settings: for Body weight (g) 9th day / Body weight (g) 13th day / Body weight (g) 16th day: Mean ± SD; for Body weight (g) 8th day / Body weight (g) 11th day / Body weight (g) 15th day / Body weight (g) 18th day: Table 19 study, compound 10 mg/kg once per day P.O.
Method: as §1, §2, §3
An analysis was made on the body weight of rats dosed with compound 374 (SM 374, once per day) or MIX (once per week or twice per week) from 9th day to 16th day after inducing AIA. […]

[3] = SM374 0.1 mg/kg once per day P.O.
[4] = SM374 0.5 mg/kg once per day P.O.
[5] = SM374 1 mg/kg once per day P.O.
[6] = SM374 10 mg/kg once per day P.O.
[7] = Table 17 study, compound 10 mg/kg once per day P.O., 18th day vs vehicle
[8] = Table 17 study, compound 10 mg/kg once per day P.O.

## O=C(NO)c1ccc(CN(C(=O)N2CCOCC2)c2cccc(C(F)(F)F)c2)cc1 [SM374, N-(4-(hydroxycarbamoyl)benzyl)-N-(3-(trifluoromethyl)phenyl)morpholine-4-carboxamide]
anti-CCP IgG; SM374 0.5 mg/kg once per day
  Anti-CCP IgG (RU): 216.2 ± 30.0 RU
anti-CCP IgG; SM374 1 mg/kg once per day
  Anti-CCP IgG (RU): 221.8 ± 28.0 RU
anti-CCP IgG; SM374 10 mg/kg once per day
  Anti-CCP IgG (RU): 206.6 ± 32.9 RU
[1]; SM374 0.1 mg/kg once per day P.O., 16th day vs vehicle
  Rate of reduction in clinical scores (%): 0%
[1]; [3]
  Clinical score 9th day: 0.0 ± 0.0
  Clinical score 13th day: 4.3 ± 2.9
  Clinical score 16th day: 6.9 ± 3.0
[1]; SM374 0.5 mg/kg once per day P.O., 16th day vs vehicle
  Rate of reduction in clinical scores (%): 2.9%
[1]; [4]
  Clinical score 9th day: 0.0 ± 0.0
  Clinical score 13th day: 2.6 ± 2.3
  Clinical score 16th day: 6.7 ± 4.2
[1]; SM374 1 mg/kg once per day P.O., 16th day vs vehicle
  Rate of reduction in clinical scores (%): 14.5%
[1]; [5]
  Clinical score 9th day: 0.0 ± 0.0
  Clinical score 13th day: 2.7 ± 3.0
  Clinical score 16th day: 5.9 ± 4.4
[1]; SM374 10 mg/kg once per day P.O., 16th day vs vehicle
  Rate of reduction in clinical scores (%): −2.9%
[1]; [6]
  Clinical score 9th day: 0.0 ± 0.0
  Clinical score 13th day: 2.9 ± 2.9
  Clinical score 16th day: 7.1 ± 3.1
[1]; [7]
  Rate of reduction in clinical scores (%): 21.3%
[1]; [8]
  Clinical score 11th day: 0.0 ± 0.0
  Clinical score 15th day: 1.6 ± 0.7
  Clinical score 18th day: 4.8 ± 1.4
[2]; [3]
  Body weight (g) 9th day: 157.3 ± 10.1 g
  Body weight (g) 13th day: 151.3 ± 13.3 g
  Body weight (g) 16th day: 144.2 ± 10.5 g
[2]; [4]
  Body weight (g) 9th day: 157.3 ± 10.0 g
  Body weight (g) 13th day: 153.1 ± 10.8 g
  Body weight (g) 16th day: 148.6 ± 9.5 g
[2]; [5]
  Body weight (g) 9th day: 157.3 ± 10.7 g
  Body weight (g) 13th day: 156.9 ± 8.9 g
  Body weight (g) 16th day: 151.6 ± 11.5 g
[2]; [6]
  Body weight (g) 9th day: 157.3 ± 9.9 g
  Body weight (g) 13th day: 151.6 ± 12.2 g
  Body weight (g) 16th day: 147.6 ± 9.3 g
[2]
  Body weight (g) 8th day: 151.3 ± 2.1 g
  Body weight (g) 11th day: 153.9 ± 1.5 g
  Body weight (g) 15th day: 159.2 ± 1.5 g
  Body weight (g) 18th day: 157.6 ± 3.1 g

## O=C(NO)c1ccc(CN(C(=O)N2CCOCC2)c2ccc(F)cc2F)cc1 [SM413, N-(2,4-difluorophenyl)-N-(4-(hydroxycarbamoyl)benzyl)morpholine-4-carboxamide]
[1]; [7]
  Rate of reduction in clinical scores (%): −3.3%
[1]; [8]
  Clinical score 11th day: 0.0 ± 0.0
  Clinical score 15th day: 3.0 ± 1.4
  Clinical score 18th day: 6.3 ± 1.4
[2]
  Body weight (g) 8th day: 151.3 ± 2.9 g
  Body weight (g) 11th day: 151.4 ± 3.9 g
  Body weight (g) 15th day: 157.4 ± 4.2 g
  Body weight (g) 18th day: 155.2 ± 4.5 g
